The nature of test [1]: Induction of tRNA-UCCA binding to T box antiterminator RNA AM1A at 200 uM by FRET method.
The nature of test [2]: Binding affinity to T box antiterminator RNA.
The nature of test [3]: Binding affinity to T box antiterminator RNA AM1A by FRET.

Activity calls are given as the source filed them. No cut-off for these calls is given here.

In the case of `NC[C@@H]1O[C@H](O[C@H]2[C@@H](O)[C@H](O[C@@H]3[C@@H](O)[C@H](N)C[C@H](N)[C@H]3O[C@H]3O[C@H](CN)[C@@H](O)[C@H](O)[C@H]3N)O[C@@H]2CO)[C@H](N)[C@@H](O)[C@@H]1O` [FRAMYCETIN], the result in test [1] was Active. The Kd in test [2] and in test [3] was 8 µM each time.

(Values after ChEMBL document CHEMBL1149873, “Identification of neomycin B-binding site in T box antiterminator model RNA” (Bioorg Med Chem, 2008).)
